Experimental data from US20250186325A1, “COMPOSITIONS OF ASCORBIC ACID SALTS” (SHISEIDO COMPANY, LTD., priority 2023, published 2025).

Assay: Assay of SAP and AA2G by HPLC (ascorbic acid derivative loss)
Format: physicochemical
Conditions: in FL#1, HPLC
Source text: The amount of ascorbic acid derivative content in a composition can be determined using a wide range of techniques including, but not limited to: titrimetric, spectrophotometric, electrochemical, fluorimetric, enzymatic and chromatographic. Methods for determining ascorbic acid derivative content in a topical composition can be complicated/confounded by the presence of excipients or other antioxidant agents (e.g., agents for stabilizing Vitamin C), as well as degradation products. Of the above-listed methods, high performance liquid chromatography may be preferred. See, A M Maia et al., “Validation of HPLC stability-indicating method for Vitamin C in semisolid pharmaceutical/cosmetic preparations . . . ” Talanta Vol. 71, pp. 639-643 (2007).
In addition, an assay of SAP and AA2G were analyzed by HPLC.

- % Loss @25° C. (4 weeks) (25° C.): −1.00%
- % Loss @37° C. (4 weeks) (37° C.): −1.00%
- % Loss @40° C. (4 weeks) (40° C.): −1.00%
- % Loss @45° C. (4 weeks) (45° C.): 0%
SMILES: O=C1O[C@H]([C@@H](O)CO)C(O)=C1O[C@H]1O[C@H](CO)[C@@H](O)[C@H](O)[C@H]1O [AA2G, ascorbyl glucoside]
